For experiment [1], the system named is CHO cells expressing FVII. Briefly: Determination of cell growth and viability (viable cell density, flow cytometry with propidium iodide). It counts as cell-based, Chinese Hamster. The settings on record: for impact on viable cell density (VCD): summary in description, supplement present in cell culture medium, FIGS. 1A-8A. A general note: In flow cytometry, cells or beads pass a laser one at a time.
Description: (§1) Chinese Hamster Ovary cell line that expresses recombinant human Factor VII fusion protein was created using the GS expression system (Lonza). These cells were maintained in commercially available CD-CHO AGT medium (Invitrogen) supplemented with 50 μg/L reduced menadione sodium bisulfite (rMSB) (Richman), 25 μM methionine sulfoximine (MSX) (Sigma) and 1 mg/L insulin (Novo Nordisk). Cells were grown in shake flasks maintained at 37° C. with 8% CO2 atmosphere and subcultured every 3 days to 3×10^5 cells/mL.
Cells from the exponential growth phase of the cultures (at the end of regular 3-day passages) were used for the experiments. The cells were centrifuged, appropriate amount of spent media removed and cell pellets were resuspended in remaining spent media to a cell concentration of 3×10^6 cells/mL. 50 μL of this cell suspension was used to inoculate each well of a polypropylene V-bottom square 96-deepwell plate (Corning) containing 450 μL of a cell culture media based on DMEM/F12 supplemented with different levels of reduced L-glutathione (Sigma). The reduced L-glutathione concentration ranges tested were 0.01-15 mM with a corresponding reduced L-glutathione-free negative control. All cultures contained 213 μg/L rMSB to support appropriate cellular processing of Factor VII. All liquid handling steps were performed using a Tecan Freedom EVO® 200 robotic platform.
(§2) Culture plates were sealed with a breathable membrane (Corning) to maintain sterility and cultures were maintained at 37° C. with 8% CO2 atmosphere in a shaker incubator (Kuhner) operating at 350 rpm with an oribital diameter of 25 mm.
The cell density and viability in the culture were determined offline from a sample of culture obtained at day 5 and day 7 (counted from inoculation of the culture) using a MACSQuant® Analyzer 10 flow cytometer (Miltenyi Biotec), utilizing propidium iodide (Miltenyi Biotec) for viability staining. […]
The cell density and viability were determined as described for Example 1.

Experiment [2] relates to recombinant human Factor VII fusion protein. Briefly: Recombinant Factor VII chromogenic activity in culture supernatants (COASET Factor VII kit). The format is cell-based. The note with it: for effect on chromogenic activity of FVII: supernatant at days 7, 9 and 10; for impact on yield and/or activity of FVII: summary in description, supplement present in cell culture medium during FVII expression, FIGS. 1B-8C.
Description: as §1
Cells from the exponential growth phase of the cultures (at the end of regular 3-day passages) were used for the experiments. The cells were centrifuged, appropriate amount of spent media removed and cell pellets were resuspended in remaining spent media to a cell concentration of 3×10^6 cells/mL. 50 μL of this cell suspension was used to inoculate each well of a polypropylene V-bottom square 96-deepwell plate (Corning) containing 450 μL of a cell culture media based on DMEM/F12 supplemented with different levels of reduced L-glutathione (Sigma). […] All cultures contained 213 μg/L rMSB to support appropriate cellular processing of Factor VII. All liquid handling steps were performed using a Tecan Freedom EVO® 200 robotic platform.
as §2
Recombinant Factor VII chromogenic activity in the cultures were determined from serially diluted supernatant samples obtained at days 7, 9 and 10 (counted from inoculation of the culture) using a commercially available chromogenic kit COASET Factor VII kit (Chromogenix). The assay was adapted for use with the SYSMEX® CS-5100 automated hemostasis analyzer (Siemens Healthcare) and performed according to manufacturers' instructions.
Cells from the exponential growth phase of the cultures (at the end of regular 3-day passages) were used for the experiments. The cells were centrifuged, appropriate amount of spent media removed and cell pellets were resuspended in remaining spent media to a cell concentration of 3×10^6 cells/mL. 50 μL of this cell suspension was used to inoculate each well of a polypropylene V-bottom square 96-deepwell plate (Corning) containing 450 μL of a cell culture media based on DMEM/F12 supplemented with different levels of alpha-ketoglutaric acid (Sigma), malic acid (Sigma), succinic acid (Sigma), oxaloacetic acid (Sigma), fumaric acid (Sigma), citric acid (Sigma) or sodium pyruvate (Sigma). […]
Recombinant Factor VII chromogenic activity in the cultures was determined as described for Example 1.

We go through two compounds from patent publication US12209261B2, “Media for the expression of recombinant vitamin K-dependent proteins” (CSL Behring Lengnau AG, priority 2015, dated 2025).

In the case of `CC(=O)C(=O)[O-].[Na+]` [Sodium pyruvate, sodium pyruvate, reference compound], in experiment [1], the “impact on viable cell density (VCD)” value is given as “only minor impact on the viable cell density”. Moreover, the “effect on chromogenic activity of FVII” value in experiment [2] (Example 2, TCA intermediates 0.06-60 mM, sodium pyruvate 0.01-10 mM, FIGS. 2B-8C) is on record as “no effect on the chromogenic activity of FVII”. For the same compound, the “impact on yield and/or activity of FVII” value in experiment [2] is given as “no impact on yield and/or activity of FVII”.
On to `N[C@@H](CCC(=O)N[C@@H](CS)C(=O)NCC(=O)O)C(=O)O` [L-glutathione, (2S)-2-amino-5-[[(2R)-1-(carboxymethylamino)-1-oxo-3-sulfanylpropan-2-yl]amino]-5-oxopentanoic acid], for which the “effect on viable cell density” value in experiment [1] (Example 1, reduced L-glutathione 0.01-15 mM in DMEM/F12-based medium, day 5 and day 7, at most concentrations tested, FIG. 1A) was “no effect on the viable cell density”. Further, in experiment [1], the “impact on viable cell density (VCD)” value is reported as “only minor impact on the viable cell density”. For the same compound, the “effect on chromogenic activity of FVII” value in experiment [2] (Example 1, reduced L-glutathione 0.01-15 mM, FIGS. 1B and 1C) was “increases chromogenic activity of FVII”. Besides, the “impact on yield and/or activity of FVII” value in experiment [2] is recorded as “enhances yield and/or activity of FVII”.
